US6565892B2, “Synergistic fungicidal composition comprising a compound analogous to strobilurin” (Rhone-Poulenc Agrochimie, priority 1995, dated 2003)
≈ marks a conversion by molar mass, not a printed value. Like-named read-outs stand apart in the source and are kept apart here.

Tested on: Plasmopara viticola
Experiment: In vivo test with respect to Plasmopara viticola (grape downy mildew) on Chardonnay vine cuttings, preventive treatment 72 hours before infection
Settings: in Vitis vinifera, spray 72 h before infection, reading 7 days after infection, read-out: dose of A alone which it is necessary to apply for the destruction of 50% of the parasite
Protocol: A suspension comprising the compounds A and B in a liquid mixture composed of a surface-active agent (oleate of polyoxyethylenated derivative of sorbitan) and water is prepared.
The component B is fosetyl-Al; the A/B ratio is 0.05, 0.07 and 0.1 (B/A=20, 15 and 10).
Vine (Vitis vinifera) cuttings, variety Chardonnay, are grown in small pots. When these seedlings are 2 months old (8- to 10-leaf stage, height of 10 to 15 cm), they are treated by spraying with the above suspension.
After 72 hours, each seedling is infected by spraying with an aqueous suspension of spores of Plasmopara viticola, which suspension is obtained from sporulated leaves infected 7 days previously. These spores are suspended at a concentration of 100,000 units per cm^3 of inoculum. Infection is carried out by spraying the inoculum at the undersurface of the leaves.
The infected seedlings are then incubated for seven days at 20-22° C. at 90-100% relative humidity under natural light.
Reading is carried out 7 days after infection, in comparison with the control seedlings.
The results obtained are reported in the form of points, corresponding to 50% destruction of the parasite, and are plotted on a Tammes isobole diagram which contains, on the abscissa, the doses of A expressed in ppm (mg/l) and, on the ordinate, the doses of B, also in ppm (mg/l). […]

EC50 (A = SSF-129 alone) [µg/mL]	SMILES	EC50 (A = ICIA5504 alone) [µg/mL]
	CO/C=C(/C(=O)OC)c1ccccc1Oc1cc(Oc2ccccc2C#N)ncn1 [ICIA5504, methyl (E)-2-{2-[6-(2-cyanophenoxy)pyrimidin-4-yloxy]phenyl}-3-methoxyacrylate]	1.5 (≈ 3.72 µM)
4.6 (≈ 14.1 µM)	CNC(=O)/C(=N/OC)c1ccccc1COc1cc(C)ccc1C [SSF-129, N-methyl-(E)-methoxyimino[2-(2,5-dimethylphenoxymethyl)phenyl]acetamide]	
